Results from patent US8580825B2, “Oxadiazole inhibitors of leukotriene production” (Boehringer Ingelheim International GmbH, priority 2010, dated 2013).
pIC50: −log10 of the molar value.

How the values were obtained:
[1] = molecular target: T1, recombinant human FLAP protein (Homo sapiens, UniProt P20292); assay: FLAP binding assay (Scintillation Proximity Assay, displacement of [125I]L-691,831); conditions: for pIC50: read-out: FLAP SPA IC50
T1 construct: made in house; host or cells: Sf9 insect cells (100,000xg membrane fraction used)
T1 sequence (P20292 1-161): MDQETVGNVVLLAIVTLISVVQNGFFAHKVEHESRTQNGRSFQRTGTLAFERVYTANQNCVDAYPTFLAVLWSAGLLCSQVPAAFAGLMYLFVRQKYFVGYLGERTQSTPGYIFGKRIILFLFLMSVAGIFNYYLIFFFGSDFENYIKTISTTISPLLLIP
Protocol: Compounds are assessed for the ability to bind to FLAP in a binding assay that measures compound-specific displacement of an iodinated (^125I) FLAP inhibitor via a Scintillation Proximity Assay format (adapted from S. Charleson et al., Mol. Pharmacol., 1992, 41, 873-879).
Cell pellets produced from sf9 insect cells expressing recombinant human FLAP protein are resuspended in buffer A [15 mM Tris-HCl (pH 7.5), 2 mM MgCl2, 0.3 mM EDTA, 1 mM PMSF]. The cells are lysed with a Dounce homogenizer and the material is centrifuged at 10,000×g for 10 minutes. The supernatant is then collected and centrifuged at 100,000×g for 60 minutes. To prepare membrane protein for an assay, an aliquot of the 100,000×g pellet is resuspended in 1 ml of buffer A, Dounce homogenized, and finally subjected to polytron mixing (30 seconds). Membrane protein (25 μl, 5 μg) is mixed with WGA SPA beads (Amersham) and stirred for 1 h. […] (final concentrations: beads, 200 μg/well; protein, 5 μg/well; [^125I] probe, 0.08 nM/well (17 nCi/well). The plates are shaken for 2 h before reading on a Microbeta plate reader. Non-specific binding is determined by the addition of 10 μM cold L-691,831 compound.

[2] = system: synthesis of LTB4 in human whole blood; assay: human whole blood LTB4 production inhibition assay; assay type: cell-based; conditions: calcimycin stimulated, read-out: hWB LTB4 IC50
Protocol: Compounds are additionally tested in a human whole blood assay to determine their ability to inhibit the synthesis of LTB4 in a cellular system. Compounds are combined with heparinized human whole blood and incubated for 15 minutes at 37° C. Calcimycin (20 μM final, prepared in phosphate-buffered saline, pH 7.4) is then added and the mixture is incubated for another 30 minutes at 37° C. The samples are centrifuged for 5 min at low speed (1500×g) and the plasma layer is removed. Plasma LTB4 concentrations are then measured using an antibody-based homogenous time-resolved fluorescence method (CisBio, Bedford, Mass.).

SMILES	pIC50 [1]	pIC50 [2]	inhibition at 1 µM ([1]; read-out: FLAP SPA inhibition at 1 uM) [%]
CC(C)C(C)(c1ccc(-c2cnc(N)nc2)nc1)c1noc(NCCO)n1 (centres unmarked) [Example 25, 2-[(3-{2-[6-(2-aminopyrimidin-5-yl)pyridin-3-yl]-3-methylbutan-2-yl}-1,2,4-oxadiazol-5-yl)amino]ethanol]	6.28	< 5.30	–
CC(C)C(C)(c1ccc(-c2cnc(N)nc2)nc1)c1noc(N2CCNCC2)n1 (centres unmarked) [Example 26, 5-(5-{3-methyl-2-[5-(piperazin-1-yl)-1,2,4-oxadiazol-3-yl]butan-2-yl}pyridin-2-yl)pyrimidin-2-amine]	6.40	5.41	–
COCCNc1ccc(-c2nc(C(C)(c3ccc(-c4cnc(N)nc4)nc3)C(C)C)no2)nn1 (centres unmarked) [Example 27, 6-(3-{2-[6-(2-aminopyrimidin-5-yl)pyridin-3-yl]-3-methylbutan-2-yl}-1,2,4-oxadiazol-5-yl)-N-(2-methoxyethyl)pyridazin-3-amine]	8.12	7.15	–
CC(C)n1cc(-c2nc(C(C)(c3ccc(-c4cnc(N)nc4)nc3)C(C)C)no2)cn1 (centres unmarked) [Example 28, 5-[5-(3-methyl-2-{5-[1-(propan-2-yl)-1H-pyrazol-4-yl]-1,2,4-oxadiazol-3-yl}butan-2-yl)pyridin-2-yl]pyrimidin-2-amine]	8.42	7.14	–
CCn1cc(-c2nc(C(C)(c3ccc(-c4cnc(N)nc4)nc3)C(C)C)no2)cn1 (centres unmarked) [Example 29, 5-(5-{2-[5-(1-ethyl-1H-pyrazol-4-yl)-1,2,4-oxadiazol-3-yl]-3-methylbutan-2-yl}pyridin-2-yl)pyrimidin-2-amine]	8.40	7.40	–
COCCOCCn1cc(-c2nc(C(C)(c3ccc(-c4cnc(N)nc4)nc3)C(C)C)no2)cn1 (centres unmarked) [Example 30, 5-{5-[2-(5-{1-[2-(2-methoxyethoxy)ethyl]-1H-pyrazol-4-yl}-1,2,4-oxadiazol-3-yl)-3-methylbutan-2-yl]pyridin-2-yl}pyrimidin-2-amine]	7.92	6.80	–
CC(C)[C@](C)(c1ccc(-c2cnc(N)nc2)nc1)c1noc(-c2cnn(C3COC3)c2)n1 [Example 31, 5-{5-[(2R)-3-methyl-2-{5-[1-(oxetan-3-yl)-1H-pyrazol-4-yl]-1,2,4-oxadiazol-3-yl}butan-2-yl]pyridin-2-yl}pyrimidin-2-amine]	8.85	7.92	–
CC(C)C(C)(c1ccc(-c2cnc(N)nc2)nc1)c1noc(-c2ccc(NCC(C)(C)O)nn2)n1 (centres unmarked) [Example 32, 1-{[6-(3-{2-[6-(2-aminopyrimidin-5-yl)pyridin-3-yl]-3-methylbutan-2-yl}-1,2,4-oxadiazol-5-yl)pyridazin-3-yl]amino}-2-methylpropan-2-ol]	7.76	6.07	–
CCOC(=O)C(C)(C)Cn1cc(-c2nc(C(C)(c3ccc(-c4cnc(N)nc4)nc3)C(C)C)no2)cn1 (centres unmarked) [Example 33, ethyl 3-[4-(3-{2-[6-(2-aminopyrimidin-5-yl)pyridin-3-yl]-3-methylbutan-2-yl}-1,2,4-oxadiazol-5-yl)-1H-pyrazol-1-yl]-2,2-dimethylpropanoate]	8.28	6.68	–
CC(C)[C@](C)(c1ccc(-c2cnc(N)nc2)nc1)c1noc(-c2cnn(C(C)(C)CO)c2)n1 [Example 34, 2-[4-(3-{(2R)-2-[6-(2-aminopyrimidin-5-yl)pyridin-3-yl]-3-methylbutan-2-yl}-1,2,4-oxadiazol-5-yl)-1H-pyrazol-1-yl]-2-methylpropan-1-ol]	8.18	7.03	–
CC(C)[C@@](C)(c1ccc(-c2cnc(N)nc2)nc1)c1noc(-c2cnn(C(C)(C)CO)c2)n1 [Example 35, 2-[4-(3-{(2S)-2-[6-(2-aminopyrimidin-5-yl)pyridin-3-yl]-3-methylbutan-2-yl}-1,2,4-oxadiazol-5-yl)-1H-pyrazol-1-yl]-2-methylpropan-1-ol]	6.68	5.49	–
Cc1ccc(C)n1-c1ncc(-c2ccc(C(C)(c3noc(-c4cn[nH]c4)n3)C(C)C)cn2)cn1 (centres unmarked) [Example 36, 2-(2,5-dimethyl-1H-pyrrol-1-yl)-5-(5-{3-methyl-2-[5-(1H-pyrazol-4-yl)-1,2,4-oxadiazol-3-yl]butan-2-yl}pyridin-2-yl)pyrimidine]	–	< 5.30	30
CC(C)[C@@](C)(c1ccc(-c2cnc(N)nc2)nc1)c1noc(-c2cnn(CC(C)(C)O)c2)n1 [Example 37, 1-[4-(3-{(2S)-2-[6-(2-aminopyrimidin-5-yl)pyridin-3-yl]-3-methylbutan-2-yl}-1,2,4-oxadiazol-5-yl)-1H-pyrazol-1-yl]-2-methylpropan-2-ol]	6.78	< 5.30	–
CC(C)[C@](C)(c1ccc(-c2cnc(N)nc2)nc1)c1noc(-c2cnn(CC(C)(C)O)c2)n1 [Example 38, 1-[4-(3-{(2R)-2-[6-(2-aminopyrimidin-5-yl)pyridin-3-yl]-3-methylbutan-2-yl}-1,2,4-oxadiazol-5-yl)-1H-pyrazol-1-yl]-2-methylpropan-2-ol]	8.19	7.48	–
CC(C)C(C)(c1ccc(-c2cnc(N)nc2)nc1)c1noc(-c2cnn(CC(C)(C)C(=O)O)c2)n1 (centres unmarked) [Example 39, 3-[4-(3-{2-[6-(2-aminopyrimidin-5-yl)pyridin-3-yl]-3-methylbutan-2-yl}-1,2,4-oxadiazol-5-yl)-1H-pyrazol-1-yl]-2,2-dimethylpropanoic acid]	7.69	< 5.30	–
CCNc1cnc(-c2nc([C@](C)(c3ccc(-c4cnc(N)nc4)nc3)C(C)C)no2)cn1 [Example 40, 5-{5-[(2S)-2-{5-[5-(ethylamino)pyrazin-2-yl]-1,2,4-oxadiazol-3-yl}-3-methylbutan-2-yl]pyridin-2-yl}pyrimidin-2-amine]	8.10	7.00	–
CCNc1cnc(-c2nc([C@@](C)(c3ccc(-c4cnc(N)nc4)nc3)C(C)C)no2)cn1 [Example 41, 5-{5-[(2R)-2-{5-[5-(ethylamino)pyrazin-2-yl]-1,2,4-oxadiazol-3-yl}-3-methylbutan-2-yl]pyridin-2-yl}pyrimidin-2-amine]	8.74	7.47	–
CCNc1ccc(-c2nc(C(C)(c3ccc(-c4cnc(N)nc4)nc3)C(C)C)no2)nn1 (centres unmarked) [Example 42, 6-(3-{2-[6-(2-aminopyrimidin-5-yl)pyridin-3-yl]-3-methylbutan-2-yl}-1,2,4-oxadiazol-5-yl)-N-ethylpyridazin-3-amine]	8.08	6.68	–
CC(C)[C@](C)(c1ccc(-c2cnc(N)nc2)nc1)c1noc(-c2cn[nH]c2)n1 [Example 43, 5-(5-{(2R)-3-methyl-2-[5-(1H-pyrazol-4-yl)-1,2,4-oxadiazol-3-yl]butan-2-yl}pyridin-2-yl)pyrimidin-2-amine]	8.92	7.49	–
CC(C)[C@](C)(c1ccc(-c2cnc(N)nc2)nc1)c1noc(-c2cnn(CC(F)F)c2)n1 [Example 44]	9.05	7.62	–
CC(C)[C@@](C)(c1ccc(-c2cnc(N)nc2)nc1)c1noc(-c2cnn(CC(F)F)c2)n1 [Example 45, 5-{5-[(2S)-2-{5-[1-(2,2-difluoroethyl)-1H-pyrazol-4-yl]-1,2,4-oxadiazol-3-yl}-3-methylbutan-2-yl]pyridin-2-yl}pyrimidin-2-amine]	6.85	5.85	–
COCCOCCn1cc(-c2nc([C@@](C)(c3ccc(-c4cnc(N)nc4)nc3)C(C)C)no2)cn1 [Example 46, 5-{5-[(2R)-2-(5-{1-[2-(2-methoxyethoxy)ethyl]-1H-pyrazol-4-yl}-1,2,4-oxadiazol-3-yl)-3-methylbutan-2-yl]pyridin-2-yl}pyrimidin-2-amine]	8.30	7.01	–
COCCOCCn1cc(-c2nc([C@](C)(c3ccc(-c4cnc(N)nc4)nc3)C(C)C)no2)cn1 [Example 47, 5-{5-[(2S)-2-(5-{1-[2-(2-methoxyethoxy)ethyl]-1H-pyrazol-4-yl}-1,2,4-oxadiazol-3-yl)-3-methylbutan-2-yl]pyridin-2-yl}pyrimidin-2-amine]	6.74	5.70	–
CC(C)[C@](C)(c1ccc(-c2cnc(N)nc2)nc1)c1noc(-c2cnn(CCF)c2)n1 [Example 48, 5-{5-[(2R)-2-{5-[1-(2-fluoroethyl)-1H-pyrazol-4-yl]-1,2,4-oxadiazol-3-yl}-3-methylbutan-2-yl]pyridin-2-yl}pyrimidin-2-amine]	8.59	7.70	–
CC(C)[C@@](C)(c1ccc(-c2cnc(N)nc2)nc1)c1noc(-c2cnn(CCF)c2)n1 [Example 49, 5-{5-[(2S)-2-{5-[1-(2-fluoroethyl)-1H-pyrazol-4-yl]-1,2,4-oxadiazol-3-yl}-3-methylbutan-2-yl]pyridin-2-yl}pyrimidin-2-amine]	7.09	5.96	–
